“Also recorded” adds a separate entry of the source.
Legend:
JCPyV [1] = assay: rescue of JCPyV infection by PMA cotreatment in SVG-A cells; format: cell-based, JC polyomavirus; settings: SVG-A cells cotreated with PMA and GW-5074
PML = assay: administration to patients with or at risk of PML (Examples 1-6); format: in vivo
Text: The patient's difficulty in walking is decreased. […] The patient's facial drooping is decreased. […] The patient's loss of vision is decreased. […] The patient's seizures are decreased. […].

[2] = test system: human and simian polyomaviruses; assay: initial infection by human and simian polyomaviruses (FIG. 4); format: cell-based
[3] = cytotoxicity in SVG-A cells; format: cell-based; settings: human, read-out: 50% cytotoxic concentration (CC50)
JCPyV [4] = assay: initial JCPyV infection in SVG-A glial cells, indirect immunofluorescent quantification of viral proteins; format: cell-based, JC polyomavirus; settings: pre-treatment
JCPyV [5] = assay: initial JCPyV infection in primary normal human astrocytes (NHA), indirect immunofluorescent quantification of viral proteins; format: cell-based, JC polyomavirus; settings: pre-treatment
JCPyV [6] = assay: JCPyV infection, cells not stated (FIG. 1, FIG. 2); format: cell-based, JC polyomavirus
JCPyV [7] = assay: long-term cell-to-cell spread of JCPyV; format: cell-based, JC polyomavirus; settings: introduced after establishment of a productive infection
Text: SI50 values are important metrics in drug discovery, and an SI50 greater than 10 is commonly considered to be an important starting point in drug development.

ERK1/2 = assay: endogenous ERK phosphorylation, with or without PMA; format: cell-based
[8] = cytotoxicity in NHA cells; format: cell-based; settings: human, read-out: 50% cytotoxic concentration (CC50)
JCPyV [9] = test system: JCPyV; parameters: unit not given beside the values; settings: cells not given; cited from earlier work
[10] = patient with early signs of PML

O=C1Nc2ccc(I)cc2C1=Cc1cc(Br)c(O)c(Br)c1 [GW-5074, 3-(3,5-dibromo-4-hydroxybenzylidene)-5-iodoindolin-2-one]
rescue of JCPyV infection (JCPyV [1]): JCPyV infection could not be rescued | development of PML (PML; patient at risk for the development of PML): does not develop PML | difficulty in walking (PML; [10]): decreased | facial drooping (PML; [10]): decreased | loss of vision (PML; [10]): decreased | loss of vision (PML; patient with mid-stage PML): decreased | seizures (PML; patient with mid-stage PML): decreased | initial infection by human and simian polyomaviruses [2]: reduction of initial infection | CC50 [3]: > 100 µM | IC50 (JCPyV [4]; JC polyomavirus, SVG-A cells, one round of productive infection, read-out: 50% inhibitory concentration (IC50)): 6.8 µM | initial JCPyV infection (JCPyV [4]; SVG-A glial cells, non-toxic concentrations): potently reduced initial JCPyV infection | IC50 (JCPyV [5]; JC polyomavirus, Astrocyte, NHA cells, one round of productive infection, read-out: 50% inhibitory concentration (IC50)): 0.84 µM | initial JCPyV infection (JCPyV [5]; primary normal human astrocytes, non-toxic concentrations): reduction of initial infection; also recorded: potently reduced initial JCPyV infection | initial JCPyV infection (JCPyV [6]; FIG. 1, cells not stated): reduction in initial JCPyV infection | protective effect (JCPyV [6]; FIG. 2): protective effect | long-term cell-to-cell spread of JCPyV (JCPyV [7]): inhibition of viral spread; also recorded: inhibited long-term cell-to-cell spread of JCPyV | endogenous ERK phosphorylation (ERK1/2): inhibits endogenous ERK1/2 phosphorylation; also recorded: inhibited endogenous ERK phosphorylation | restoration of ERK activity (ERK1/2; coincubation with PKC agonist PMA): ERK activity could not be restored | CC50 [8]: > 20 µM

Cc1ccc(C2Nc3ccccc3C(=O)N2c2ccccc2)s1 (stereo not shown) [Retro-2^cycl]
SI50 of established compounds with anti-JCPyV activity (JCPyV [9]): 7.4

CN(C)CCCN1c2ccccc2Sc2ccc(Cl)cc21 [chlorpromazine]
SI50 of established compounds with anti-JCPyV activity (JCPyV [9]): 2.0

OC(c1cc(C(F)(F)F)nc2c(C(F)(F)F)cccc12)C1CCCCN1 (stereo not shown) [mefloquine]
SI50 of established compounds with anti-JCPyV activity (JCPyV [9]): 4.0

Reference: US12691097B2, “Methods and compositions for treating polyomavirus” (Brown University, priority 2022, dated 2026)
